Assay results reported in PMC5799093, “Proceedings of Réanimation 2018, the French Intensive Care Society International Congress” (Annals of Intensive Care, 2018).

What was measured:
[1] = comparison value; cited from earlier work
[2] = Acute amitriptylin and clomipramine poisonings in the ICU, clinical features and pharmacokinetics
[3] = Amikacin peak serum concentration (Cmax) in ICU patients with septic shock/severe sepsis (P-52); assay type: in vivo, human
[4] = human, in vivo
Method: Patients and methods: This study was conducted in burn center in Tunis. Patients with documented and or suspected infections were included. Were excluded pregnant women and patients with renal failure. […] For the 2nd, 3rd, 4th and 5th day, blood samples were taken before the infusion (T0), at the end (T1) and 30 min after the end of it (T2).

[5] = system: Pseudomonas; conditions: January 2010 - June 2014
[6] = system: Escherichia-coli; experiment: Resistance in nosocomial urinary tract infection: Escherichia-coli (P-219); conditions: January 2010 - June 2014
[7] = system: Acinetobacter baumannii; conditions: January 2010 - June 2014
[8] = system: carbapenemase-producing Enterobacteriaceae; experiment: Antibiotic susceptibility of Enterobacteriaceae with decreased susceptibility to carbapenems; assay type: cell-based; conditions: for resistant rate: CA-SFM 2015
[9] = system: Pseudomonas aeruginosa; experiment: Disk diffusion susceptibility of P. aeruginosa isolated from burned patients (P-48); assay type: cell-based; conditions: for strains resistant: 485 strains from burned patients 2012-2015, disk diffusion, FSM breakpoints
[10] = critically ill patients, 25 mg kg dose; ref 1 (de Montmollin et al. 2014); cited from earlier work
Method: Introduction: Amikacin infusion requires to target a peak serum concentration (Cmax) 8–10 times the minimal inhibitory concentration, corresponding to a Cmax at 60–80 mg L^−1 for the least susceptible bacteria. […] Membrane sequestration, alteration of the volume of distribution and lack of data in this population make drugs pharmacokinetics (PK) on ECMO challenging. Our study aimed to assess the prevalence of insufficient Amikacin Cmax in critically ill patients on ECMO and to identify re ...

[11] = set-up: method as in Taccone in 2010; conditions: dosages of 25 mg kg; ref Taccone in 2010; cited from earlier work
[12] = Amikacin peak serum concentration (Cmax) after loading dose in patients on ECMO; assay type: in vivo, adult patients; conditions: IV loading dose 25 mg kg total body weight; Cmax 30 min after end of infusion; VA- or VV-ECMO; n = 106
[13] = system: TREM-1 signalling pathway; conditions: in vivo; cited from earlier work
Description: Introduction: MOTREM is the clinically formulated synthetic peptide (LR12) that is currently being developed for the treatment of sepsis and for the prevention of sequelae after acute myocardial infarction. […] Its pharmacological action occurs via the Triggering Receptor Expressed on Myeloid Cells-1 (TREM-1) signalling pathway.

[14] = clinical; conditions: male, human, in vivo, iv
Method: (§1) Patients and methods: Twenty-seven healthy male volunteers have been included in this clinical trial. The product was administered by continuous intravenous infusion (CIV). A single ascending dose design with 8 dose levels was used. […] All volunteers were carefully monitored. Before escalation to the next dose level, safety and PK data of the previous dose level were reviewed by a safety review committee.

[15] = MOTREM phase I first-in-human single ascending dose trial, safety and pharmacokinetics; conditions: in vivo
Method: as §1

[16] = not given; remark: listed apart in the source
[17] = Major arrhythmia recurrence after resuscitated ischemic VF/VT, PROCAT registry (P-86); assay type: in vivo, human; conditions: multivariate analysis, 256 patients, 104 treated; p = 0.870
Description: Patients and methods: The PROCAT registry captures all data from patients admitted in a tertiary hospital center after a resuscitated cardiac arrest (CA). We selected patients with an initial VF VT caused by an acute coronary syndrome (ACS) and who were successfully treated with early percutaneous coronary intervention (PCI) on admission. The primary endpoint was the recurrence of major arrhythmia between ICU admission and ICU discharge. All arrhythmias resulting in CA recurrence and or severe arterial hypotension requiring infusion of vasopressors were classified as major arrhythmias. Multivariate logistic regression identified factors associated with the occurrence of major arrhythmias.

[18] = Caffeine in bronchiolitis related apnea, PICU retrospective study (P-118); conditions: 49 treated of 54 infants; loading 20 mg kg, 5 mg kg day maintenance
[19] = Fatal carbon monoxide intoxication, forensic series (P-181); conditions: 29 fatal cases, toxicological analysis at autopsy
[20] = system: Pseudomonas aeruginosa (PA); experiment: Antibiotic resistance of Pseudomonas aeruginosa before/after antibiotic stewardship (P-214); assay type: cell-based
[21] = system: Pseudomonas aeruginosa; experiment: Resistance of nosocomial infection isolates: Pseudomonas aeruginosa (P-222); assay type: cell-based; conditions: n = 14 isolates, 2016
Description: Patients and methods: This was a retrospective study conducted within a 22-bed medical ICU of a Tunisian teaching hospital (301 beds) carried from January 1st to December 31, 2016. We recorded demographic patients’ characteristics which ICU’s stay was complicated with at least one NI. Then we described pathogens and microbiological specificities of NI.

[22] = system: P. aeruginosa; experiment: Antibiotic resistance of P. aeruginosa (P-147); assay type: cell-based
[23] = 2 g day intermittent infusion, trough concentrations, theoretical target MIC 2 mg/L, 21 patients, 63 samples
[24] = Eight of 49 patients
[25] = New-generation anticonvulsive drug poisoning in ICU with pharmacokinetics (P-146); assay type: in vivo, human; conditions: membrane-stabilizing effects resulting in acute cardiac failure
Description: Pharmacokinetics modeling and parameters were obtained using WinNonlin v.5.1 software.

[26] = system: eclampsia; experiment: Eclampsia survey, recurrence under magnesium sulfate prevention; assay type: in vivo, patients; conditions: 83 women
Description: Patients and methods: We conducted a retrospective survey in a third level Tunisian university teaching hospital from January 2004 to December 2016. We included all patients with the diagnosis of eclampsia.

[27] = system: GABA-A receptors; experiment: PET imaging with 11C-flumazenil, interaction of tramadol with GABA-A receptors; assay type: binding; conditions: 11C-flumazenil fixation in the rat brain
[28] = system: Extended spectrum betalactamase producing Enterobacteriaceae; experiment: Antibiotic resistance of ESBL producing Enterobacteriaceae (P-147); assay type: cell-based; conditions: isolates 2015 and 2016
[29] = system: Acinetobacter baumanni; experiment: Antibiotic resistance of Acinetobacter baumanni (P-147); assay type: cell-based; conditions: imipenem resistant isolates
[30] = CVVHF filter lifespan, LMWH versus regional citrate anticoagulation (P-97); set-up: species or system human; conditions: in vivo
Description: Patients and methods: A monocentric retrospective study was led from January to October 2016. All the CVVHF sessions during this period were included. Prismaflex© monitors (Hospal) were used. Practioners were free to choose between citrate or LMWH defining 2 groups. We aimed a post filter ionized calcemia between 0.25 to 0.5 mmol/L in citrate group + and a post filter anti Xa activity between 0.2 to 0.5 UI/mL in LMWH.

[31] = system: anti-Xa activity; experiment: Population pharmacokinetics of enoxaparin (anti-Xa activity) in pediatric liver transplantation (P-170); assay type: in vivo, human (children)
Method: Patients and methods: Clinical, biological and kinetic data were retrospectively collected in a single Pediatric Intensive Care Unit center from January 2013 to July 2015. We described an enoxaparin PK model in 22 children the first week following the LT. Anti-Xa activity time-courses were analyzed using a non linear mixed effects approach with Monolix version 2016R.

[32] = Heparin-induced thrombocytopenia in ICU (anti-PF4 antibody test); assay type: in vivo; conditions: patients hospitalized in ICU
Method: Patients and methods: This was a retrospective, monocentric, descriptive and evaluative study conducted in our intensive care unit (ICU) over a period of 4 years 6 months. An anti-PF4 antibody test was performed in patients who developed thrombocytopenia or a 30% drop in their initial platelet kinetics and the clinical picture.

[33] = Piperacillin-tazobactam 16 g day continuous infusion, PK PD target attainment; assay type: in vivo, critically ill patients; conditions: MIC 16 mg L^−1 for piperacillin, n = 60
[34] = system: microorganisms of post-operative pneumonia; experiment: Susceptibility of microorganisms cultured in severe post-operative pneumonia (P-213); assay type: cell-based; conditions: 66 patients with significant culture
Method: Patients and methods: All patients with severe POP occurring within 30 days after lung resection between January 2013 and December 2015 were included. We collected data on clinical presentation, results of microbiological investigations, antibiotic regimen and outcomes. The quality of antibiotic use was assessed using indicators previously validated in the literature.

[35] = Beta-lactam plasma concentrations in children with severe sepsis or septic shock (HPLC); conditions: current standard dosing

## CN(C)CCC=C1c2ccccc2CCc2ccccc21 [AMI, Amitriptylin]
[1]
  elimination half-life in pharmacological conditions: 24 h
[2]; median, AMI [0.4 + 1.4], dose 1.5 g, CLO [0.5 + 1.4], dose 3.0 g
  plasma concentration: 700 ng/mL
[2]; non-compartmental analysis
  elimination half-life in overdose: 43 h
[2]; p < 0.0001
  coma depth, AMI vs CLO: significantly deeper coma
[2]; p = 0.02
  seizures, AMI vs CLO: fewer seizures than CLO

## NCC[C@H](O)C(=O)N[C@@H]1C[C@H](N)[C@@H](O[C@H]2O[C@H](CN)[C@@H](O)[C@H](O)[C@H]2O)[C@H](O)[C@H]1O[C@H]1O[C@H](CO)[C@@H](O)[C@H](N)[C@H]1O [Amikacin]
[3]; median dosage 22.5 mg kg, initial injection, 191 patients
  median Cmax: 72.1 mg·L
[3]; of 191 patients
  patients with Cmax greater than 80 mg l: 53 patients
  patients with Cmax less than 64 mg l: 77 patients
[4]
  amikacin clearance: 6.4 L·h
  correlation between Cpeak at day 1 and Cpeak at day 5 (r): 0.45
[5]
  resistant: 44%
[6]
  resistance: without resistance
[7]
  resistant: 85%
[8]
  resistant rate: 57%
Mean dose 26 mg kg day, 1 h infusion, 18 burned patients
  cases reaching a peak between 60 and 80 μg/ml: 55%
Range (0.28–1.32)
  total volume of distribution: 0.55 L·kg
Range [1.42–8 h]
  half-life time (t1 2): 4.70 h
[9]
  strains resistant: 62%
[10]
  patients not attaining target Cmax 60–80 mg L^−1: 33%
[11]
  peaks above 64 mg l: 70%
[12]
  Cmax < 60 mg L^−1 (proportion of patients): 39%

## CSCC[C@H](NC(=O)[C@H](CS)NC(=O)CNC(=O)[C@H](Cc1ccc(O)cc1)NC(=O)[C@H](CCC(=O)O)NC(=O)CNC(=O)[C@H](C)NC(=O)[C@H](CC(=O)O)NC(=O)[C@H](CCC(=O)O)NC(=O)[C@H](CCC(=O)O)NC(=O)[C@H](CCC(N)=O)NC(=O)[C@@H](N)CC(C)C)C(N)=O [MOTREM]
[13]
  GLP toxicology: safe and well tolerated in GLP toxicology studies
[14]
  clearance: 110 mL/min/kg
[15]
  PK linearity: linear
[16]; 27 healthy male volunteers
  product-related adverse events: No product-related adverse events were reported
[16]; continuous IV infusion, healthy male volunteers
  effective half-life: about 3 min
[16]; up to 5mg/kg 15-min loading dose and 6 mg kg h for 7.75 hours
  safety and tolerability: safe and well tolerated up to the highest dose tested

## CCCCc1oc2ccccc2c1C(=O)c1cc(I)c(OCCN(CC)CC)c(I)c1 [amiodarone]
[17]
  OR for recurrences of major arrhythmias with prophylactic AA treatment: 0.9 [0.3–3.1]

## Cn1c(=O)c2c(ncn2C)n(C)c1=O [caffeine]
[18]
  potential caffeine adverse effects between groups or pre and post-caffeine administration: no difference

## [C-]#[O+] [carbon monoxide]
[19]
  mean HbCO level: 51.59%

## CC(C)(O/N=C(\C(=O)N[C@@H]1C(=O)N2C(C(=O)[O-])=C(C[n+]3ccccc3)CS[C@H]12)c1csc(N)n1)C(=O)O [ceftazidim]
[20]; period 2007–2010 (P1)
  antibiotic resistance of PA: 42%
[20]; period 2011–2014 (P2), after antibiotic stewardship, p < 0.01
  antibiotic resistance of PA: 11%
[21]
  resistance: 33.3%
[9]
  strains resistant: 21%
[22]; isolates 2015 and 2016
  resistance: 10%

## CO/N=C(\C(=O)N[C@@H]1C(=O)N2C(C(=O)O)=C(CSc3nc(=O)c(=O)[nH]n3C)CS[C@H]12)c1csc(N)n1 [ceftriaxone]
[23]
  rate of PK/PD target non-attainment: 62%

## C[C@H]1O[C@@H](O[C@H]2[C@@H](O)C[C@H](O[C@H]3[C@@H](O)C[C@H](O[C@H]4CC[C@@]5(C)[C@H](CC[C@@H]6[C@@H]5C[C@@H](O)[C@]5(C)[C@@H](C7=CC(=O)OC7)CC[C@]65O)C4)O[C@@H]3C)O[C@@H]2C)C[C@H](O)[C@@H]1O [digoxin]
[24]
  patients who died in the ICU: 16%

## COC[C@@H](NC(C)=O)C(=O)NCc1ccccc1 [lancosamide, lacosamide]
[25]
  outcome: died

## O=S(=O)([O-])[O-].[Mg+2] [magnesium sulfate]
[26]
  recurrence of eclampsia despite prevention: 6%

## COc1cccc(C2(O)CCCCC2CN(C)C)c1 (stereo not drawn) [tramadol]
[27]
  interaction with GABA-A receptors: molecular interaction between tramadol and γ-aminobutyric acid (GABA)-A receptors not related to a competitive mechanism

## colistin
[28]
  sensitivity: all bacterial stocks were sensitive
[8]; colistin excepting with Proteus
  susceptibility: 98%
[9]; 485 strains from burned patients, disk diffusion
  strains susceptible: 100%
[29]
  sensitivity: all bacterial stocks were sensitive
[22]; Ceftazidim resistant isolates
  sensitivity: all bacterial stocks were sensitive

## enoxaparin
[30]
  serious side effect, especially hemorrhage: No serious side effect
[31]; 22 children, first week after LT, one-compartment, scaled to 70 kg, Monolix
  typical clearance (CLTYP): 1.26 L/h
[31]; 22 children, scaled to 70 kg
  typical volume of distribution (VTYP): 16.9 L
[31]; standard 50 IU kg 12 h, 7 children
  children who never attained the target range of anti-Xa activity 0.2 to 0.4 IU mL: 32%

## heparin
[32]
  incidence of HIT: 1.71%

## piperacillin-tazobactam
[33]
  rate of empirical target non-attainment: 17%
[8]
  resistant rate: 87%
[34]
  patients whose microorganisms were sensitive: 86%
[35]
  patients with insufficient plasma concentration: 77%
